Our source for the concentration and AUC values is patent publication US4988681A, “Phosphinic acid derivatives” (Banyu Pharmaceutical Co., Ltd., priority 1988, dated 1991).

The data set in a line: Pharmacokinetic evaluation: plasma concentration in dogs. Format: in vivo, Male beagle dogs. Particulars: dog; for concentration at 0.5 h: 1/2 h; for concentration at 0.25 h: 1/4 h; for concentration at 5 min: 1/12 h; for AUC: trapezoidal rule. How it is done: Male beagle dogs (14 month-old) were divided into groups each having three animals. The compound No. 2 was administered intravenously to a first group in a dose of 10 mg/kg. The compound No. 2 was orally administered to a second group in a dose of 10 mg/kg. Then at the points of 1/12, 1/4, 1/2, 1, 2, 4, 6, 8, 24 and 48 hours after the administration, plasma samples were taken periodically from the cephalic vein, and the plasma concentrations of the compounds were measured by an enzyme assay using porcine DHP-I. The results are shown in Table 4-b. The area under the curve (AUC) of the plasma level was determined according to the trapezoidal rule.

Under “iv 10 mg/kg”, `CC(C)CP(=O)(O)C/C(=C\C1CCCCC1)C(=O)O` [Compound No. 2, (Z)-3-cyclohexyl-2-(hydroxyisobutylphosphinoyl)methylpropenoic acid] had a concentration at 0.5 h of 52200 ng/mL, a concentration at 0.25 h of 71000 ng/mL, a concentration at 5 min of 87300 ng/mL and a concentration at 1 h of 40800 ng/mL. Further, where the note is “iv 10 mg/kg”, the concentration at 2 h came out at 24500 ng/mL, the concentration at 4 h was found to be 6700 ng/mL, the concentration at 6 h came to 2400 ng/mL and the concentration at 8 h turned out to be 1200 ng/mL. Also, for the setting “iv 10 mg/kg”, the concentration at 24 h worked out at 100 ng/mL and the AUC (in general, concentration integrated over time) is 144000 ng·h/mL. Also, for the setting “po 10 mg/kg”, the concentration at 0.5 h is 5800 ng/mL, the concentration at 0.25 h amounted to 3000 ng/mL, the concentration at 5 min was determined as 500 ng/mL and the concentration at 1 h was 9600 ng/mL. Further, where the note is “po 10 mg/kg”, the concentration at 2 h turned out to be 7800 ng/mL, the concentration at 4 h was determined as 3100 ng/mL, the concentration at 6 h came out at 1600 ng/mL and the concentration at 8 h was found to be 700 ng/mL. Besides, under “po 10 mg/kg”, the concentration at 24 h stood at 700 ng/mL and the AUC is 51500 ng·h/mL.
